Patent US9649324B2, “Use of tylvalosin as antiviral agent” (ECO ANIMAL HEALTH LIMITED, priority 2006, dated 2017)

Experiments:
HRT-18 cells = assay: Intracellular accumulation of macrolides in HRT-18 cells; assay type: in vitro ADME, human; settings: for intracellular:extracellular ratio: human, 10 μg/mL
Procedure: HRT-18 cells, in 6 cm tissue cultures dishes, were incubated in the presence of 0.5, 5 or 50 μg/mL tylvalosin. After 4 h, two dishes for each tylvalosin concentration and two dishes without antibiotic were removed from the incubator. A sample of medium (about 1 mL) was removed, placed in a labelled Eppendorf tube and stored at −20° C. The rest of the medium was then removed. Each of the cell monolayers was washed twice in PBS, using approximately 5 mL for each wash. The plunger from a 2 mL plastic syringe was used to gently scrape off the cells. PBS (500 μL) was added to the dish and the cells gently removed into this medium, using a micropipette. The sample was then placed in an Eppendorf tube and centrifuged at 8000×g in a bench centrifuge (Biofuge pico, Heraeus instruments) for 13 sec. An obvious cell pellet formed. The supernatant was removed using a micropipette and the cell material was stored at −20° C. in a labelled Eppendorf tube. After approximately 24 h the remaining tissue culture dishes were removed from the incubator and treated as described above for the 4 h samples. All the samples, including the 4 h samples, were then stored at −70° C.
HRT-18 cells were prepared as described above and used at passage 42. Stock solutions of antibiotics (either tylvalosin, tylosin or tilmicosin) were diluted in growth media and 10 μg/mL each antibiotic was added to the confluent cell monolayers. The cells were incubated at 37° C. in a 5% CO2 atmosphere for either 4 h or 24 h. The media and cells were harvested and tested for antibiotic, as described above.
(§1) All the supernatant and cell samples were transported frozen (at approximately −20° C.) to York Bioanalytical Solutions (York, England) for analysis. Briefly, 0.25 g of buffer (RPMI medium containing 10% FCS) was weighed into a polypropylene tube. A 50 μL volume of the appropriate working solution was added to the quality control (QC) samples. Methanol (50 μL) was added to each blank sample used for preparation of calibration standards, recovery samples and reagent blanks. A 2.5 mL volume of 0.1 M phosphate buffer was added to each sample, vortex mixed for approximately 1 min and then centrifuged at 3220×g for 10 min at 4° C.
(§2) For the liquid-liquid clean-up phase, an aliquot (100 μL) of the supernatant was transferred to a polypropylene tube. The pH was adjusted to pH 8-8.5 by the addition of 0.1 M NaOH, and vortex mixed. Ethyl acetate (5 mL) was added and after capping, the whole mixture was shaken for 10 min and then centrifuged at 3220×g for 10 min at 4° C.
(§3) Ammonium acetate (20 mM; pH native)—formic acid, 1000:3, v/v (100 μL) was added to each well in a 2 mL polypropylene collection plate. An aliquot of the ethyl acetate mixture (100 μL) was transferred to the polypropylene collection plate and evaporated under nitrogen (40° C.) until the ethyl acetate was fully evaporated whilst the ammonium acetate remained. Methanol (100 μL) was added to each well, excluding the calibration standards.
(§4) To each well containing a calibration standard, 100 μL of the appropriate calibration working solution was added. Samples were then vortex mixed for at least 10 min and submitted for liquid chromatography with tandem mass spectrometric analysis. The method stated was applicable to the samples of media (and the calibration standards and quality control samples).
(§5) For the cells, the sample tubes were weighed, and 100 μL of acetonitrile was added. The samples were vortex mixed for 10 sec, then centrifuged at 10285×g at 4° C. for 5 min. The sample was transferred to a polypropylene tube. The original sample tube was washed with 0.1 M phosphate buffer (1 mL). This was transferred to the polypropylene tube. A second wash of 1 mL was made, then a final wash of 0.5 mL. The polypropylene tube was now at the same stage as the end of the liquid extraction, but with the cells present rather than media. This was then taken through the sample preparation as described above. […]

[1] = in vivo; cited from earlier work
PRRSV [2] = test system: PRRSV
EAV = assay: Sensitivity to chloroquine (Example 8), EAV
PRRSV [3] = assay: Inhibitors of PRRSV infection added at various times pre and post infection (Example 7); assay type: cell-based; settings: for PRRSV spread / initial PRRSV infection (initial site of infection): added 2 or 4 hours after infection
[4] = test system: equine arteritis virus (EAV); assay: Effect on equine arteritis virus infection (Example 6); assay type: cell-based
Procedure: Experiments were carried out to determine whether tylvalosin has an effect on equine arteritis virus (EAV).

[5] = test system: VR2332 (US strain of PRRSV); assay: VR2332 (US strain of PRRSV) entry assay in MA104 cells (Example 10); settings: 4 h pretreatment, moi 10, overnight
[6] = test system: chicken white blood cells; assay: Intracellular accumulation in chicken white blood cells; assay type: in vitro ADME; design: intracellular:extracellular ratio, variation during the experimental time period: dose or concentration left out as unconfirmed; settings: chicken
Procedure: Pig blood was collected in Heparin-coated BD vacutainers (6). 20 mL of blood and 30 mL of phosphate buffered saline (PBS) were mixed in a 50 mL conical centrifuge tube. This was repeated in order to obtain 3 such tubes. The mixtures were centrifuged for 10 min at 2050×g. The white blood cells, together with some red blood cells below, were harvested into a 50 mL conical centrifuge tube. PBS was added to about 50 mL. A 63% solution of Percoll was made as follows: 6.3 mL Percoll (Sigma), 1.0 mL 1.5 M NaCl, 2.7 mL H2O. 10 mL of 63% Percoll was added to each of two 50 mL conical centrifuge tubes. 25 mL of the resuspended white blood cells were carefully layered on top of the each of the Percoll solutions. A sharp interface was produced. The material was centrifuged at 3000×g for 10 min. […] The white blood cells were harvested in PBS (50 mL) and centrifuged at 500×g for 10 min. The cell pellet was resuspended in medium (Glasgow minimum essential medium containing penicillin and streptomycin). A viable cell count was made using trypan blue. The same method used for isolation of pig WBCs was used for the chicken WBCs, with the exception that heparin (100 I.U./mL) was prepared and mixed with an equal volume of chicken whole blood.
All tubes were placed on a rotary mixing machine, at 37° C. Supernatant and cell samples were harvested at the times described in the figure legends. Duplicate samples were used for each antibiotic for each time point.
as §1, §2, §3, §4, §5

endosomal pH = assay: Acridine orange assay of endosomal pH (Example 13); assay type: cell-based; settings: acridine orange stained endosomes, any cell line
Procedure: Acridine orange is a dye that causes cells to fluoresce green with the exception of acidic compartments (such as endosomes) that appear red—due to the protonation of the dye and quenching of the green fluorescence. A substance that raises the endosomal pH will prevent the appearance of the red fluorescence. The effect of Aivlosin® and other macrolide antibiotics on a the staining of endosomes by acridine orange in number of cells lines was determined (see FIG. 19). An area of cells grown on a glass coverslip is first selected using a DAPI stain. […] This selection procedure helps reduce any bias in the results. The green and red filters on the epifluorescence microscope were then used to examine about 20 cells. The number of red spots (endosome vesicles) in was determined. The average number of Acridine orange stained endosomes was counted.

PRRSV [7] = assay: Effect of macrolides on PRRSV (background statement)
Caco-2 cells = assay: Intracellular accumulation and trans-epithelial transport in polarised Caco-2 cells; assay type: in vitro ADME, human; settings: human, Caco-2, 240 min, 10 μg/mL
Procedure: Caco-2 cells were seeded at a density of 0.8×10^6 cells per well of a Transwell Clear filter 6 well plate, 0.4 μm pore size. The cells were incubated with 2 mL medium in both apical and basolateral chambers. This medium was replaced every 2 days for 10-14 days. Transepithelial resistance was measured using Millicell ERS apparatus (Millipore) at day 7, 10 and/or 14 in order to identify when the cells had become polarised. Readings of >1000 Ω were indicative of polarised cells. […]
as §1, §2, §3, §4
(§6) For the cells, the sample tubes were weighed, and 100 μL of acetonitrile was added. The samples were vortex mixed for 10 sec, then centrifuged at 10285×g at 4° C. for 5 min. The sample was transferred to a polypropylene tube. The original sample tube was washed with 0.1 M phosphate buffer (1 mL). This was transferred to the polypropylene tube. A second wash of 1 mL was made, then a final wash of 0.5 mL. The polypropylene tube was now at the same stage as the end of the liquid extraction, but with the cells present rather than media. This was then taken through the sample preparation as described above. The original sample tubes were allowed to dry (i.e. any remaining solvent evaporated off) and were then reweighed to determine the weight of cells in the sample, to allow the concentration per gram of cells to be determined.

LLC-PK1 cells = assay: Intracellular accumulation in pig kidney epithelial cells; assay type: in vitro ADME; settings: pig, 75 min, 10 μg/mL
Procedure: LLC-PKI cells in 6 cm^2 plastic tissue culture dishes were incubated with 10 μg/mL of the different macrolides. Cells and medium were harvested as described above at 30, 75 and 120 min.
as §1, §2, §3, §4, §6

## CC[C@H]1OC(=O)C[C@@H](OC(C)=O)[C@H](C)[C@@H](O[C@@H]2O[C@H](C)[C@@H](O[C@H]3C[C@@](C)(O)[C@@H](O)[C@H](C)O3)[C@H](N(C)C)[C@H]2O)[C@@H](CC=O)C[C@@H](C)C(=O)/C=C/C(C)=C/C1CO[C@@H]1O[C@H](C)[C@@H](O)[C@@H](OC)[C@H]1OC (stereo partly drawn) [3-acetyltylosin, 3-O-Acetyltylosin]
HRT-18 cells
  uptake and accumulation in cells: behave in the same way

## CC[C@H]1OC(=O)[C@H](C)[C@@H](O[C@H]2C[C@@](C)(OC)[C@@H](O)[C@H](C)O2)[C@H](C)[C@@H](O[C@@H]2O[C@H](C)C[C@H](N(C)C)[C@H]2O)[C@](C)(O)C[C@@H](C)CN(C)[C@H](C)[C@@H](O)[C@]1(C)O [azithromycin]
[1]
  transintestinal elimination, share of the total administered dose: 30-35%

## CCN(CC)CCCC(C)Nc1ccnc2cc(Cl)ccc12 (stereo not drawn) [chloroquine]
PRRSV [2]
  concentration required to inhibit infection: less than 5 μM
FCV
  concentration required to inhibit infection: ≥ 200 µM
EAV
  concentration required to inhibit infection: ≥ 50 µM
PRRSV [3]
  PRRSV spread: no effect
  initial PRRSV infection (initial site of infection): no effect
PRRSV [3]; added 4 hours before infection
  initial PRRSV infection: inhibited
PRRSV [3]; added at the time of infection
  initial PRRSV infection: inhibited

## CN(C)CCCN1c2ccccc2Sc2ccc(Cl)cc21 [chlorpromazine]
PRRSV [3]
  PRRSV spread: appeared to prevent spread
  initial PRRSV infection (initial site of infection): showed the initial site of infection
PRRSV [3]; added 4 hours before infection
  initial PRRSV infection: inhibited
PRRSV [3]; added at the time of infection
  initial PRRSV infection: inhibited

## CC[C@H]1OC(=O)[C@H](C)[C@@H](O[C@H]2C[C@@](C)(OC)[C@@H](O)[C@H](C)O2)[C@H](C)[C@@H](O[C@@H]2O[C@H](C)C[C@H](N(C)C)[C@H]2O)[C@](C)(OC)C[C@@H](C)C(=O)[C@H](C)[C@@H](O)[C@]1(C)O [clarithromycin]
[1]
  transintestinal elimination, share of the total administered dose: about 10%

## C=C1[C@@H](C)[C@H]2[C@H](Cc3ccccc3)NC(=O)[C@]23[C@H](OC(C)=O)/C=C/[C@@](C)(O)C(=O)[C@@H](C)C/C=C/[C@H]3[C@@H]1O [cytochalasin D]
PRRSV [3]
  PRRSV spread: no spread could be detected
  initial PRRSV infection (initial site of infection): no effect
PRRSV [3]; added 4 hours before infection
  initial PRRSV infection: inhibited
PRRSV [3]; added at the time of infection
  initial PRRSV infection: inhibited

## COC(=O)Nc1nc2ccc(C(=O)c3cccs3)cc2[nH]1 [nocodazole]
[4]
  EAV infection: not blocked
PRRSV [3]
  initial PRRSV infection (initial site of infection): no effect
PRRSV [3]; added 4 hours before infection
  initial PRRSV infection: inhibited
PRRSV [3]; added at the time of infection
  initial PRRSV infection: did not inhibit

## CC[C@H]1OC(=O)C[C@@H](O)[C@H](C)[C@@H](O[C@@H]2O[C@H](C)[C@@H](O[C@H]3C[C@@](C)(O)[C@@H](O)[C@H](C)O3)[C@H](N(C)C)[C@H]2O)[C@@H](CC=O)C[C@@H](C)C(=O)/C=C/C(C)=C/[C@@H]1CO[C@@H]1O[C@H](C)[C@@H](O)[C@@H](OC)[C@H]1OC [tylosin]
[5]
  inhibition of VR2332 infection: not
HRT-18 cells; 4 h
  intracellular:extracellular ratio: less than 1 fold
HRT-18 cells; 24 h
  intracellular:extracellular ratio: less than 1 fold
[6]
  intracellular:extracellular ratio, variation during the experimental time period: 2.65-4.7 fold
[6]; 15 min, 10 μg/mL
  average intracellular concentration: 10.1 μg/mg cells
[6]; 60 min, 10 μg/mL
  intracellular concentration: 32.1 μg/mg cells
Endosomal pH
  effect on raising the pH in the endosomes: did not have much effect
PRRSV [7]
  effect on PRRSV: no effect
Caco-2 cells
  average intracellular concentration: 1.86 μg/mg cells
  basolateral chamber content as average % of the apical chamber value: 0.52%
LLC-PK1 cells
  average intracellular concentration: 2.41 μg/mg cells
